This assay concerns mouse hippocampal neurons treated with toxic amyloid beta oligomer. As to the kind of experiment: Amyloid beta-induced synapse loss in primary hippocampal neurons. In kind it is cell-based. Particulars: 6.6 nM; co-treated with toxic amyloid beta oligomer; 21 DIV. How it is done:
Alzheimer's disease (AD) is tightly associated with the dysmetabolism of amyloid-R (A3). To begin assessing whether the polypeptides provided herein (i.e., comprising the FAM19A5 binding domain of LRRC4 protein family members) could have any therapeutic effects on AD, the effect of various FB-21 peptide fragments described herein on the deformation of synapse induced by toxic A3 oligomer and following structural recovery was assessed. Specifically, the following FB-21 peptide fragments were tested: FB-21, FB-JM-31 and FB-BBB-39 (see Example 10).
Aβ42 (#20276) peptide was purchased from AnaSpec (Fremont, USA). […]
Hippocampal neurons were treated with 6.6 nM FB-21, 6.6 nM of FB-13-JM and 6.6 nM of FB-13-BBBX2 at 14, 17 and 20 DIV to determine the level of synaptogenesis at 21 DIV by immunostaining SYP, a presynapse marker protein and PSD95, a postsynapse marker protein. To quantify fluorescence intensity for SYN and PSD95 and number of colocalized voxels between SYN and PSD95 signals, z-stack confocal images of 3 m in depth were converted to 3D images using IMARIS software (IMARIS9.0, Bitplane AG, Zurich, Switzerland). The “Surface tool” of the IMARIS software was used to exclude all the signals detected in neuronal cell bodies, and number of colocalized voxels between SYN and PSD95 signals in neurites were calculated using the “Coloc tool”. […]

Where no end group is shown, it is not given here. [ ]: non-standard residue; d: D form.

On to “nYTYFTTVTVETLETQPGEEALDEVMKTTKa ([dN]YTYFTTVTVETLETQPGEEALDEVMKTTK[dA]; also: terminal modifications) [dFB-JM-31]”, for which the “colocalized voxels for PSD95 and synaptophysin” value is recorded as “significant increase”.

The values are drawn from patent publication US20250333441A1, “POLYPEPTIDE INHIBITORS AND USES THEREOF” (Neuracle Science Co., Ltd., priority 2021, published 2025).
